In patent US8268823B2, “Medical use of triazine derivatives” (University of Greenwich, priority 2006, dated 2012):
Where two headings read alike, the source gives them in different places.

Assays:
[1] = molecular target: T1, DiHydroFolate Reductase (DHFR) (Rattus norvegicus, UniProt Q920D2); assay: inhibition of binding of [3H]methotrexate to rat liver homogenate supernatant; details: for inhibition at 20 µM: assay concentration 20 μM; for IC50: rat liver supernatant; for inhibition at 495 µM: assay concentration 495 μM
T1 construct: from tissue; host or cells: rat liver homogenate supernatant (47,500 x g)
T1 sequence (Q920D2 1-187): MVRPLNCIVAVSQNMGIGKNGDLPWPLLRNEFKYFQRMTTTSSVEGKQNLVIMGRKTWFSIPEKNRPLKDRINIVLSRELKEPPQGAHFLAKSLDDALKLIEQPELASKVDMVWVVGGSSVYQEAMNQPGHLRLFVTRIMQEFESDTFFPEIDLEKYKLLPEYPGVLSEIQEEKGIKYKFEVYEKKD
Method: All steps were carried out at 4° (or on ice). Freshly dissected rat liver was dissected into 0.25M ice-cold Sucrose and subsequently homogenised (U-turrax) in 50 mM pH 6.0 phosphate buffer (10 ml/g tissue) containing 15 mM Dithiothreitol. The resulting homogenate was centrifuged @ 47,500×g for 20 min and supernatant (filtered through cotton wool to remove fatty lumps) stored @-80° before use (Rothenberg et al).
The binding reaction was stopped by the addition of 50 μl of a charcoal suspension (consisting of charcoal, Bovine Serum Albumin and Dextran present in a weight ratio of 100:4:1 suspended in 50 mM pH 6.0 phosphate buffer. Samples were vortexed, allowed to stand for 2 minutes and charcoal was precipitated by microcentrifugation @ full speed for 5 min. Aliquots of clear supernatant were transferred to counting vials containing liquid scintillant for measurement of radioactivity using Liquid Scintillation Spectroscopy.
Percentage inhibition values were calculated by comparison to this value.
(§1) Data are presented as mean±sem of number of experiments indicated in brackets.

sodium channel = assay: veratrine-evoked uptake of [14C]guanidine into rat forebrain synaptosomes ([14C]guanidine flux); assay type: biochemical; details: for Hill (uptake of [14C]guanidine): slope
Method: The screening strategy is designed to select compounds with appropriate sodium channel blocking activity and low side effect liability. To this end all compounds are processed through the primary sodium channel assay (veratrine-evoked uptake of [^14C]guanidine into rat forebrain synaptosomes) and IC50 values computed from generated concentration-effect curves.
Synaptosomes (heavy and light mitochondrial fraction containing synaptosomes) were prepared by transferring the forebrain (of known wet weight) to a glass Potter vessel to which 9 volumes ice-cold 0.25M sucrose had been added and homogenising, using a teflon pestle, by 8 ‘up and down strokes’ of a Braun Potter S motor driven homogeniser set to 900 rpm. The resulting homogenate was centrifuged at 1036×g at 4° for 10 min and the supernatant collected. The remaining pellet was resuspended, as above, in fresh ice-cold 0.25M sucrose and the centrifugation step repeated. The supernatant fractions were pooled and centrifuged at 40,000×g (average) at 4° for 15 min and the resulting pellet resuspended in the appropriate assay buffer at a concentration of 20-25 mg wet weight per ml appropriate assay buffer.
Both assays were carried out using 14 ml polypropylene test tubes to which a range of concentrations of the compounds under test were added.
Compounds under test were pre-incubated for 10 min at 30° in incubation buffer (50 mM pH 7.4 HEPES (adjusted to pH 7.4 with Tris base), 130 mM choline chloride, 5.5 mM D-glucose, 0.8 mm MgSO4 and 5 mM KCl) containing 7.5 mg original wet weight of tissue and 100 μg veratrine HCl in a final volume of 0.5 ml. […] A further 2×5 ml of ice-cold wash buffer was added to each tube and the vacuum filtration step repeated. The GF/C glass fibre filters were transferred to minivials and 4 ml Picofluor^40 liquid scintillant added using a Brandel™ deposit/dispense system. Radioactivity was measured using a Beckman Liquid Scintillation Counter.
as §1

[2] = read-out: [3H]methotrexate binding Inhibition (% @ assay conc'n)
[3] = read-out: [3H]methotrexate binding Inhibition (% @ assay conc'n), assay concentration 99 μM
[4] = Table 3, rat forebrain synaptosomes, read-out: [14C]guanidine flux Mean (IC50: μM)
[5] = Table 8, read-out: IC50 (μM) (uptake of [14C]guanidine)

N=c1nc(N)c(-c2cccc(Cl)c2Cl)nn1CC(N)=O [Example 11]
inhibition at 20 µM [1, 2]: -3% | inhibition at 99 µM [1, 3]: -3% | IC50 (sodium channel; [4]): > 100 µM

Cc1ccc(Cn2nc(-c3cccc(Cl)c3Cl)c(N)nc2=N)cc1 [Example 12, 5(3)-Amino-6-(2,3-dichlorophenyl)-2,3(2,5)-dihydro-3(5)-imino-2-(4-methyl)phenylmethyl-1,2,4-triazine]
inhibition at 20 µM [1, 2]: -2% | inhibition at 99 µM [1, 3]: -3% | IC50 (sodium channel; [4]): 4.1 µM

N=c1nc(N)c(-c2cccc(Cl)c2Cl)nn1Cc1ccc(F)cc1 [Example 16, 5(3)-Amino-6-(2,3-dichlorophenyl)-2,3(2,5)-dihydro-3(5)-imino-2-(4-fluoro)phenylmethyl-1,2,4-triazine]
inhibition at 10 µM ([1]; read-out: [3H]methotrexate binding Inhibition (% @ assay conc'n), assay concentration 10 μM): -3% | inhibition at 99 µM [1, 3]: -3% | IC50 (sodium channel; [4]): 5.1 µM

N=c1nc(N)c(-c2cccc(Cl)c2Cl)nn1Cc1cccc(Cl)c1 [Example 20, 5(3)-Amino-6-(2,3-dichlorophenyl)-2,3(2,5)-dihydro-3(5)-imino-2-(3-chloro)phenylmethyl-1,2,4-triazine]
[3H]methotrexate binding Inhibition (% @ assay conc'n) ([1]; assay concentration 9 μM): −4% | [3H]methotrexate binding Inhibition (% @ assay conc'n) ([1]; assay concentration 99 μM): −7% | IC50 (sodium channel; [4]): 3.5 µM

N=c1nc(N)c(-c2cccc(Cl)c2Cl)nn1Cc1ccc(Cl)cc1 [Example 21, 5(3)-Amino-6-(2,3-dichlorophenyl)-2,3(2,5)-dihydro-3(5)-imino-2-(4-chloro)phenylmethyl-1,2,4-triazine]
[3H]methotrexate binding Inhibition (% @ assay conc'n) ([1]; assay concentration 10 μM): −4% | [3H]methotrexate binding Inhibition (% @ assay conc'n) ([1]; assay concentration 95 μM): −4% | IC50 (sodium channel; [4]): 6.5 µM

N=c1nc(N)c(-c2cccc(Cl)c2Cl)nn1Cc1ccccc1Cl [Example 22, 5(3)-Amino-6-(2,3-dichlorophenyl)-2,3(2,5)-dihydro-3(5)-imino-2-(2-chloro)phenylmethyl-1,2,4-triazine]
IC50 (sodium channel; [4]): 4.6 µM

N=c1nc(N)c(-c2cccc(Cl)c2Cl)nn1Cc1ccc(C(F)(F)F)cc1 [Example 25, 5(3)-Amino-6-(2,3-dichlorophenyl)-2,3(2,5)-dihydro-3(5)-imino-2-(4-trifluoromethyl)phenylmethyl-1,2,4-triazine]
IC50 (sodium channel; [4]): 6.2 µM

N=c1nc(N)c(-c2cccc(Cl)c2Cl)nn1Cc1cccc(C(F)(F)F)c1F [Example 26, 5(3)-Amino-6-(2,3-dichlorophenyl)-2,3(2,5)-dihydro-3(5)-imino-2-(2-fluoro-3-trifluoromethyl)phenylmethyl-1,2,4-triazine]
IC50 (sodium channel; [4]): 5.3 µM

N=c1nc(N)c(-c2cccc(Cl)c2Cl)nn1Cc1ccc(C(N)=O)cc1 [Example 27, 4-{[5(3)-Amino-6-(2,3-dichlorophenyl)-2,3-dihydro-3(5)-imino-1,2,4-triazin-2-yl]methyl}benzamide or 5(3)-Amino-6-(2,3-dichlorophenyl)-2,3(2,5)-dihydro-3(5)-imino-2-(3-carboxamido)phenylmethyl-1,2,4-triazine]
IC50 (sodium channel; [4]): 234 µM

N=c1nc(N)c(-c2cccc(Cl)c2Cl)nn1Cc1ccc(CO)cc1 [Example 28, 4-{[5(3)-Amino-6-(2,3-dichlorophenyl)-2,3-dihydro-3(5)-imino-1,2,4-triazin-2-yl]methyl}phenylmethanol or 5(3)-Amino-6-(2,3-dichlorophenyl)-2,3(2,5)-dihydro-3(5)-imino-2-(4-hydroxymethyl)phenylmethyl-1,2,4-triazine]
IC50 (sodium channel; [4]): 49 µM

Nc1nnc(-c2cccc(F)c2F)c(N)n1 [Example 33, 6-(2,3-difluorophenyl)-1,2,4-triazine-3,5-diamine]
IC50 [1]: 442 ± 5.1 µM | IC50 (sodium channel; [4]): > 300 µM

Nc1nnc(-c2cccc(Cl)c2F)c(N)n1 [Example 35]
IC50 [1]: 81.3 µM | IC50 (sodium channel; [4]): 490 µM

CC(C)(C)OC(=O)N1CCC(Cn2nc(-c3cccc(Cl)c3Cl)c(N)nc2=N)CC1 [Example 37, 1,1-Dimethylethyl 4-[5(3)-Amino-6-(2,3-dichlorophenyl)-2,3(2,5)-dihydro-3(5)-imino-1,2,4-triazin-2-ylmethyl]piperidine-1-carboxylate or 5(3)-Amino-6-(2,3-dichlorophenyl)-2,3(2,5)-dihydro-3(5)-imino-2-(Bocpiperidin-4-yl)methyl-1,2,4-triazine]
IC50 [1]: > 300 µM | IC50 (sodium channel; [4]): 12.9 µM

Nc1nnc(-c2ccccc2)c(N)n1 [Example 43, 3,5-Diamino-6-phenyl-1,2,4-triazine]
inhibition at 50 µM ([1]; read-out: [3H]methotrexate binding Inhibition (% @ assay conc'n), assay concentration 50 μM): 82% | IC50 (sodium channel; [4]): > 500 µM

Nc1nnc(-c2ccc(Cl)cc2Cl)c(N)n1 [Example 44, 3,5-Diamino-6-(2,4-dichlorophenyl)-1,2,4-triazine]
IC50 [1]: 105 µM | IC50 (sodium channel; [4]): 603 µM

Cn1nc(-c2ccc(Cl)cc2Cl)c(N)nc1=N [Example 45, 5(3)-Amino-6-(2,4-dichlorophenyl)-2,3(2,5)-dihydro-3(5)-imino-2-methyl-1,2,4-triazine methanesulfonate]
inhibition at 495 µM [1, 2]: -1% | IC50 (sodium channel; [4]): 87.1 µM

Cn1nc(-c2ccccc2)c(N)nc1=N [Example 46, 5(3)-Amino-6-phenyl-2,3(2,5)-dihydro-3(5)-imino-2-methyl-1,2,4-triazine methanesulfonate]
IC50 [1]: 288 µM | IC50 (sodium channel; [4]): 2290 µM

CCn1nc(-c2ccccc2)c(N)nc1=N [Example 47, 5(3)-Amino-6-phenyl-2,3(2,5)-dihydro-3(5)-imino-2-ethyl-1,2,4-triazine methanesulfonate]
inhibition at 495 µM [1, 2]: 1% | IC50 (sodium channel; [4]): 676 µM

Cn1nc(-c2cc(Cl)ccc2Cl)c(N)nc1=N [Example 48, 5(3)-Amino-6-(2,5-dichlorophenyl)-2,3(2,5)-dihydro-3(5)-imino-2-methyl-1,2,4-triazine methanesulfonate]
IC50 [1]: 251 µM | IC50 (sodium channel; [4]): 28.2 µM

CCn1nc(-c2cc(Cl)ccc2Cl)c(N)nc1=N [Example 49, 5(3)-Amino-6-(2,5-dichlorophenyl)-2,3(2,5)-dihydro-3(5)-imino-2-ethyl-1,2,4-triazine methanesulfonate]
IC50 [1]: 95 µM | IC50 (sodium channel; [4]): 20.9 µM

N=c1nc(N)c(-c2cccc(Cl)c2Cl)nn1CCF [Example 52, 5(3)-Amino-6-(2,3-dichlorophenyl)-2,3(2,5)-dihydro-3(5)-imino-2-(2-fluoroethyl)-1,2,4-triazine methanesulfonate]
pIC50 (uptake of [14C]guanidine) (sodium channel; Table 8): 5.00 ± 0.08 | IC50 (sodium channel; [5]): 10 µM | Hill (uptake of [14C]guanidine) (sodium channel; Table 8): 0.74

Cn1nc(-c2cc(Cl)cc(Cl)c2)c(N)nc1=N [Example 53, 5(3)-Amino-6-(3,5-dichlorophenyl)-2,3(2,5)-dihydro-3(5)-imino-2-methyl-1,2,4-triazine methanesulfonate]
pIC50 (uptake of [14C]guanidine) (sodium channel; Table 8): 4.34 ± 0.16 | IC50 (sodium channel; [5]): 45.7 µM | Hill (uptake of [14C]guanidine) (sodium channel; Table 8): 0.73

CCn1nc(-c2cc(Cl)cc(Cl)c2)c(N)nc1=N [Example 54, 5(3)-Amino-6-(3,5-dichlorophenyl)-2,3(2,5)-dihydro-3(5)-imino-2-ethyl-1,2,4-triazine methanesulfonate]
pIC50 (uptake of [14C]guanidine) (sodium channel; Table 8): 4.73 ± 0.11 | IC50 (sodium channel; [5]): 18.6 µM | Hill (uptake of [14C]guanidine) (sodium channel; Table 8): 0.76

N=c1nc(N)c(-c2cc(Cl)cc(Cl)c2Cl)nn1CCF [Example 55, 5(3)-Amino-6-(2,3,5-trichlorophenyl)-2,3(2,5)-dihydro-3(5)-imino-2-(2-fluoroethyl)-1,2,4-triazine methanesulfonate]
pIC50 (uptake of [14C]guanidine) (sodium channel; Table 8): 5.20 ± 0.05 | IC50 (sodium channel; [5]): 6.31 µM | Hill (uptake of [14C]guanidine) (sodium channel; Table 8): 0.79

N=c1nc(N)c(-c2cc(Cl)cc(Cl)c2Cl)nn1CCC(F)(F)F [Example 56, 5(3)-Amino-6-(2,3,5-trichlorophenyl)-2,3(2,5)-dihydro-3(5)-imino-2-(3,3,3-trifluoropropyl)-1,2,4-triazine methanesulfonate]
pIC50 (uptake of [14C]guanidine) (sodium channel; Table 8): 2.90 ± 0.20 | IC50 (sodium channel; [5]): 1260 µM | Hill (uptake of [14C]guanidine) (sodium channel; Table 8): 0.83
